From patent US8158142B2, “3-deazaadenosine prevents atherosclerosis and graft vasculopathy” (Kerckhoff-Klinik Gesellschaft mit beschrankter Haftung, priority 1998, dated 2012)

Key:
female C57BL/J6 mice = experiment: Quantification of atherosclerotic lesions and neointimal proliferation in the ascending aorta of mice on atherogenic diet; type: in vivo, mouse; conditions: for NI/M Ratio (neointimal to medial area ratio): mean ± SEM, 3 sections per animal
From the text: (§1) Six to eight week old female C57BL/J6 mice (Charles Rivers Wiga, Sulzfeld, Germany) with an average body weight of 20 g were randomly divided into three groups:
Group 1: control animals (n=9) maintained on a normal mouse diet (Altromin, Standard Diet; Lage, Germany).
Group 2: nine animals receiving an atherogenic diet based on normal mouse chow but differing in total fat content (10% vs. 5%), protein content (15.4% vs. 22%) and cholesterol content (1% vs. 0%). The total energy was 3790 vs. 3000 kcal/kg.
Group 3: nine animals on an atherogenic diet as described above, and 3-deazaadenosine (c^3Ado) (Southern Research, Birmingham, Ala., USA) mixed into the food at a final concentration of 0.04 mg/g, according to a daily oral dose of 10 mg/kg c^3Ado per animal.
(§2) The average intake of food for each animal was 5.2 g per day. Food and water were replenished every 2 days, and the volumes consumed for each cage were recorded. The mice were kept in accordance with standard animal care requirements and were maintained on a 12 hour light-dark cycle with autoclaved water in a temperature-controlled environment. All animals remained healthy during the experimental period. After 9 weeks, mice were sacrificed by inhalation of trichlormethane. The heart and the ascending aorta were removed and rinsed with PBS DULBECCO'S (Life Technologies, Paisley, Scotland). The lower half of the heart was transected along a line between the tips of the atria to obtain a base for the emerging ascending aorta. This procedure allowed an exact vertical embedding of the aorta in Tissue-Tek (Miles, USA) for optimal plane cross sections. The sections were frozen in liquid nitrogen and stored at −80° C. until further study.
A modification of the method described by Paigen at el. (29) was used to evaluate aortic lesion formation. The frozen tissue blocks were placed on a cryotome, and 8 μm serial sections of the ascending aorta were collected on coated glass slides until we were able to locate the most cranial portion of the aortic sinus by examining unstained sections. Once this section (No.1) was identified, the cranial 35 sections, covering 280 μm of the ascending aorta, were placed on separate slides for further evaluation. Every fifth section of the first 280 μm of the ascending aorta was stained with oil red O (Riedel de Haen, Germany) and counterstained with hemalaun (Merck, Darmstadt, Germany) end elastic van Gieson (Chrome-Gesellsohaft, Schmid GmbH, Köngen, Germany). Lesion area as well as intimal and medial area were blindly determined using a video-computer aided microscopy planimetry system (Zeiss, Oberkochen, Germany; Video Camera 3 CCD,
Sony; 40× lens magnification; IBAS-2 with IBAS Version 2.0 Standard, Kontron, München, Germany).
The number of lesions was counted as described previously by reviewing every fifth section. […] The number of lesions in each cross section was also counted. Size of the lesions was determined as length of lesion along the luminal aortic perimeter which was related to the total luminal aortic perimeter in the section.
The extent of neointimal proliferation was quantified by measuring the area (μm^2) of the neointima and the media in each ascending aorta from 3 sections (No.10, 20 and 30). In each section four sectors (at 0°, 90°; 180° and 270°) of the vessel wall were analyzed in a defined window of 63 μm×63 μm to measure neointimal area enclosed by the endothelial layer and internal elastic lamina and external elastic lamina. Ratio of neointimal to medial are ratio (NI/M) was averaged for each animal.

VCAM-1 [1] = experiment: Immunohistochemical staining of VCAM-1 in ascending aorta (APAAP method); type: in vivo, mouse; conditions: for Endothelial expression of VCAM-1 in the aorta (words): mice on atherogenic diet treated with c^3Ado, FIG. 4
Procedure: (§3) Serial cryostate sections (8 μm) from the following 3 parts of the ascending aorta were chosen: 8-32 μm, 120-144 μm and 240-264 μm distal to the aortic sinus. The frozen sections were fixed in ice-cold acetone and dried for 10 minutes. Sections were then incubated for 10 minutes in a 1:1000 dilution of mouse serum (Sigma, St. Louis, Mo., USA). After rinsing with RPMI 1640 (Life Technologies, Paisley, Scotland), the sections were incubated for 40 minutes at room temperature with a 1:100 dilution of a monoclonal rat anti-mouse antibody against ICAM-1 (CF54) or VCAM-1 (CD106, Dianova GmbH, Hamburg, Germany). Detection of monocytes/macropheges was performed using monoclonal rat anti-mouse antibody CD11 b (MAC-1) (Serotec Ltd., Oxford, England).
(§4) After additional washing steps with TRIS buffer (USB, Cleveland, Ohio, USA) and incubation with a secondary antibody (AffiniPureMouse anti-ret IgG, Dianova, Germany) (1:400) for 10 minutes, followed by incubation with a linking antibody (Dualsystem-Brückenantikörper; Dianova, Hamburg, Germany) (1:600) for 10 minutes, the sections were incubated with an alkaline phosphatase anti-alkaline phosphatese complex (APAPP) (1:50; Dianova, Hamburg, Germany) for 30 minutes. The development of the sections was performed in neufuchsin developer solution. Sections were finally counterstained with hemalaun (Merck, Darmstadt, Germany) for 10 seconds. Control sections were treated with linking secondary antibody and APAAP complex only.
(§5) The intensity of staining with ICAM-1 and VCAM-1 was scored from 1 to 4 as follows: score 1=no staining, score 2=weak staining, score 3=moderate staining and score 4=strong staining of the vascular cells. The number of CD11b-positive cells was counted in each section, and the localization of the cells was classified as adherent to the wall, or localized in the intima or in the media.

ICAM-1 [2] = experiment: Immunohistochemical staining of ICAM-1 in ascending aorta (APAAP method); type: in vivo, mouse; conditions: for Endothelial expression of ICAM-1 in the aorta (words): mice on atherogenic diet treated with c^3Ado, FIG. 4
Procedure: as §3, §4, §5

CD11b-positive monocytes = experiment: Counting of CD11b-positive monocytes in aortic sections; type: in vivo, mouse
Procedure: as §3, §4, §5

[3] = Total plasma cholesterol levels (CHOD-PAP method); type: in vivo, mouse; conditions: atherogenic diet + c^3Ado 10 mg/kg/day oral, mean ± SEM
Procedure: Blood was collected via the tail vein from all mice after overnight fasting prior to initiation of the experiment, after 35 days feeding the different diets, and at time of death. Total plasma cholesterol levels were determined using the CHOD-PAP method (Boehringer Mannheim, Germany) as described previously (32).

Body weight development = type: in vivo, mouse; conditions: day 65, atherogenic diet + c^3Ado 10 mg/kg/day oral, mean ± SEM, n = 9
Procedure: as §1, §2

[4] = test system: Lewis rats which received heterotopically transplanted hearts from Fisher rats; experiment: Heterotopic heart allograft survival and rejection (Fisher to Lewis rats); type: in vivo, rat
Procedure: (§6) 3-Deazaadenosine was orally administered by mixing into the regular food at a final concentration of 0.04 mg/g, according to a daily oral dose of 10 mg/kg c3Ado per animal, in addition to or in absence of cyclosporine (0.2 mg/kg body weight) to Lewis rats which received heterotopically transplanted hearts from Fisher rats. For a third control group, only cyclosporine was administered daily to the other allograft recipients. All animals got a standard diet over the whole study period. Allografts were harvested on day 120, cardiac graft beat was assessed by daily palpation, and the complete cessation of the graft beat was interpreted as rejection.

[5] = test system: Lewis rats which received heterotopically transplanted hearts from Fisher rats; experiment: Graft vasculopathy / graft atherosclerosis (intimal thickening) in transplanted hearts; type: in vivo, rat; conditions: after 120 days
Procedure: as §6, with “rejection. […]” for “rejection.”
Every complete cross-section of the traceable arteries was calculated. The sections were reviewed by two independent reviewers masked to the status of the slides, and histologic changes were assessed semiquantitatively. The changes of intimal thickening were scored as mild (score 1, <25% occlusion of the lumen) when the intima was readily discernible, or as moderate (score 2, 25-50% occlusion) to severe (score 3, >50% occlusion).

ICAM-1 [6] = experiment: Immunohistochemical analysis of ICAM-1 in transplanted hearts; type: in vivo, rat; conditions: heart allograft, day 120
Procedure: as §6, with “rejection. […]” for “rejection.”
(§7) For immunohistochemical analysis of VCAM-1 and ICAM-1. two complete transverse sections of the transplanted heart approximately 3 mm in thickness were obtained and stored in optimum cutting temperature compound. Serial sections were cut and dipped in cold acetone for 10 minutes. The staining procedures were performed as described previously. The expression of the adhesion molecules was scored on the basis of endothelial cells and smooth muscle cells of epicardial arteries and intramyocardial aterioles. Analysis was done semiquantitatively by scoring the intensity of the staining and counting of the number of stained cells.

VCAM-1 [7] = experiment: Immunohistochemical analysis of VCAM-1 in transplanted hearts; type: in vivo, rat; conditions: heart allograft, day 120
Procedure: as §6, with “rejection. […]” for “rejection.”
as §7

monocyte = conditions: cited from earlier work
endothelial cells = conditions: in vitro, via selective inhibition of ICAM-1 synthesis; cited from earlier work
[8] = biological target: adenosylhomocysteine hydrolase (Homo sapiens, UniProt P23526); conditions: cited from earlier work
[9] = mean ± SEM out of 3 sections per animal, 9 weeks atherogenic diet + c^3Ado
[10] = score 1 = no staining to 4 = strong staining, endothelial, ascending aorta, 9 weeks, mean ± SEM
[11] = group 3, atherogenic diet + c^3Ado

adenosylhomocysteine hydrolase, sequence (P23526 whole entry): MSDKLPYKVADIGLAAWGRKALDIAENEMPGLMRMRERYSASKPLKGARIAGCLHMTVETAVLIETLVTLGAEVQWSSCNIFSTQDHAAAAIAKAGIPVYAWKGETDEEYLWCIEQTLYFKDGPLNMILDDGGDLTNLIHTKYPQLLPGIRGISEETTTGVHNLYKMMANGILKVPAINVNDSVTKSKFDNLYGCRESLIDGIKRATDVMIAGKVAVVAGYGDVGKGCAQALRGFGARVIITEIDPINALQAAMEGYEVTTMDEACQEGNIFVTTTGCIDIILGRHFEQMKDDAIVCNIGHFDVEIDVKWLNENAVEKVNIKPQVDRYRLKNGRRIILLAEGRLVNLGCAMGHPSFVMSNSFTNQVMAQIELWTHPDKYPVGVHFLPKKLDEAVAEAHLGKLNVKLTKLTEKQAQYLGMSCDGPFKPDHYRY

Nc1nccc2c1ncn2[C@@H]1O[C@H](CO)[C@@H](O)[C@H]1O [c^3Ado, 3-deazaadenosine]
Number of lesions (female C57BL/J6 mice; fatty streak lesions, mean ± SEM from 7 sections per animal): 0 ± 0 | Neointima in aortic cross sections (female C57BL/J6 mice; light micrographs, 200 μm cranial to aortic valve, FIG. 3): absent | Medial Area (female C57BL/J6 mice; [9]): 62.7 ± 2.5 × × 10^3 μm^2 | Neointimal area (female C57BL/J6 mice; [9]): 0.13 ± 0.03 × × 10^3 μm^2 | NI/M Ratio (neointimal to medial area ratio) (female C57BL/J6 mice; 9 weeks atherogenic diet + c^3Ado): 0.002 ± 0.0004 | NI/M Ratio (neointimal to medial area ratio) (female C57BL/J6 mice; 9 weeks atherogenic diet + c^3Ado, listed as c^aAdo): 0.002±0.0004 | Fatty streak lesions in sections of the ascending aorta (female C57BL/J6 mice; oil red O staining, 7 frozen sections per animal): no detectable lesions | Neointimal area (female C57BL/J6 mice; proximal ascending aorta, planimetric analysis, atherogenic diet + c^3Ado, p<0.001): 125±32 μm^2 | Neointimal thickness as NI/M, lower than in mice on atherogenic diet without c^3Ado (female C57BL/J6 mice; vs atherogenic diet alone, p<0.001): 94% | Endothelial expression of VCAM-1 in the aorta (words) (VCAM-1 [1]): completely absent | Endothelial expression of VCAM-1 in the aorta (words) (VCAM-1 [1]; listed as 3-deazaadenosine): no endothelial expression | VCAM-1 expression score (VCAM-1 [1]; [10]): 1.0 ± 0 | Endothelial expression of ICAM-1 in the aorta (words) (ICAM-1 [2]): completely absent | Endothelial expression of ICAM-1 in the aorta (words) (ICAM-1 [2]; listed as 3-deazaadenosine): no endothelial expression | ICAM-1 expression score (ICAM-1 [2]; [10]): 1.0 ± 0 | Adherent CD11b-positive cells on the luminal surface (CD11b-positive monocytes; [11]): only a few adherent CD11b-positive cells | CD11b-positive monocytic cells within the intima (CD11b-positive monocytes; [11]): no monocytic cells within the intima | Amount of intimal monocytes (first column of this head) (CD11b-positive monocytes; mean ± SEM per section, 3 defined sections per animal, first of two columns with the same head (title: endothelial monocytes)): 0.5 ± 0.2 | Amount of intimal monocytes (second column of this head) (CD11b-positive monocytes; mean ± SEM per section, 3 defined sections per animal, second of two columns with the same head): 0 ± 0 | Total cholesterol day 35 ([3]; day 35, plasma): 410 ± 19 mg/dL | Total cholesterol day 65 ([3]; day 65, plasma): 475 ± 10 mg/dL | Body weight day 65 (Body weight development): 25.3 ± 0.2 g | Complications as a result of therapy ([4]; 10 mg/kg/day oral, 120 days): No complications | Graft survival (graft beat) ([4]; daily palpation, observation 120 days): kept beating for the duration of observation | Graft rejection ([4]; heart allograft, 120 days): completely free from rejection | Intimal thickening of intramyocardial and epicardial arteries [5]: almost no arterial intimal thickening | ICAM-1 expression in the neointima of transplanted hearts (ICAM-1 [6]): almost no expression | VCAM-1 expression in the neointima of transplanted hearts (VCAM-1 [7]): almost no expression | Monocyte chemotaxis and phagocytosis (monocyte): inhibit | Tumor necrosis factor-a-induced macrophage adhesion to endothelial cells (endothelial cells): reduces | Effect on adenosylhomocysteine hydrolase [8]: suppresses
